Publication PMC8550792, “Evolution of kinase polypharmacology across HSP90 drug discovery” (Cell Chemical Biology, 2021)

How the values were obtained:
Test in all cases: biochemical
Format in all cases: biochemical
382 unique human kinases [1] = target: T1, 382 unique human kinases (Homo sapiens, UniProt P00533, G719C); details: kinase EGFR (G719C), compound 10 uM; for remaining activity at 10 µM: read-out: % Enzyme Activity (relative to DMSO controls)
T1 construct: purchased Reaction Biology (HotSpot contract assay)

382 unique human kinases [2] = target: T2, 382 unique human kinases (Homo sapiens, UniProt P52333); details: JAK3, 10 uM; for remaining activity at 10 µM: read-out: % Enzyme Activity (relative to DMSO controls)
T2 construct: purchased Reaction Biology (HotSpot contract assay)
T2 sequence (P52333 1-1124): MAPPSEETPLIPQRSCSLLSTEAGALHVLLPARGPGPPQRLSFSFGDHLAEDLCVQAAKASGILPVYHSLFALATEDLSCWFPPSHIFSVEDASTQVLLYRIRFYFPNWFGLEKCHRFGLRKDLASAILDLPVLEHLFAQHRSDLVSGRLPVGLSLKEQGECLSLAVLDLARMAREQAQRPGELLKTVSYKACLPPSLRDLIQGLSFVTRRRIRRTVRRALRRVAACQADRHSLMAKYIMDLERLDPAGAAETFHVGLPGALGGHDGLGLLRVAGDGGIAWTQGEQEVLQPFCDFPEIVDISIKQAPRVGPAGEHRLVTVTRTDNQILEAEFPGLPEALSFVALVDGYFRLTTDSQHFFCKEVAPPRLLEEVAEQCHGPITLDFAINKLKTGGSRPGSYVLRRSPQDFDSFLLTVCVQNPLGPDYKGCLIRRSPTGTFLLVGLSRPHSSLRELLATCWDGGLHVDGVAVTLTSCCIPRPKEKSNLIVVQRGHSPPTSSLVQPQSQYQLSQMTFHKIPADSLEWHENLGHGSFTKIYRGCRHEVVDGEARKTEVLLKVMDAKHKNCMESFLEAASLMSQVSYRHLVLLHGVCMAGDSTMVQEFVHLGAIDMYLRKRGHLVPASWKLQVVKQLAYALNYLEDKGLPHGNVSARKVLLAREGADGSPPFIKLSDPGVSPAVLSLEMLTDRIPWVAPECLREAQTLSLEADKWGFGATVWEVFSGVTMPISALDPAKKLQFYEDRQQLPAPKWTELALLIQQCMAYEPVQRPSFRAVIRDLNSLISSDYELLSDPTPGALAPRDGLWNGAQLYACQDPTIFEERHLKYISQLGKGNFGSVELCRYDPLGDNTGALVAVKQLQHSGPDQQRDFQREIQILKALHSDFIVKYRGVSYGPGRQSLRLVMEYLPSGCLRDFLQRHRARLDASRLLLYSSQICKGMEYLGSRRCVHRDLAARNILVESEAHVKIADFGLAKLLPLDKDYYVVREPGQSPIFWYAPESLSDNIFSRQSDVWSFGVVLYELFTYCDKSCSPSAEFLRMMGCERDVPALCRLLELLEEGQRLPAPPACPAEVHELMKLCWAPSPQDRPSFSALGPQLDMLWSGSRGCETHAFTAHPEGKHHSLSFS

382 unique human kinases [3] = target: T3, 382 unique human kinases (Homo sapiens, UniProt Q13163); details: MEK5, 10 uM; for remaining activity at 10 µM: read-out: % Enzyme Activity (relative to DMSO controls)
T3 construct: purchased Reaction Biology (HotSpot contract assay)
T3 sequence (Q13163 1-448): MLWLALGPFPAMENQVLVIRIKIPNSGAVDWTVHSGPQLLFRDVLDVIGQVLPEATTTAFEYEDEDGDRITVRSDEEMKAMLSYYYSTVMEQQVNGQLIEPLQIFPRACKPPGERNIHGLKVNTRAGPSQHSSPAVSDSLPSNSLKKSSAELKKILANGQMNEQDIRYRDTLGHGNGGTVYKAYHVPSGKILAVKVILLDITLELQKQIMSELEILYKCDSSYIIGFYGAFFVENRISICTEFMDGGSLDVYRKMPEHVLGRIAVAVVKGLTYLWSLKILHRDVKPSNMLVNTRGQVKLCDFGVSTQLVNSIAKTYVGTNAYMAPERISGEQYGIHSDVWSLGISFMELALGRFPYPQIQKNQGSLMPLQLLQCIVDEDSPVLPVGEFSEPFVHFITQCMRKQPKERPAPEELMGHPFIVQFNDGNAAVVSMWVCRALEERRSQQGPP

382 unique human kinases [4] = target: T4, 382 unique human kinases (Homo sapiens, UniProt Q15139); details: PKCmu/PRKD1, 10 uM; for remaining activity at 10 µM: read-out: % Enzyme Activity (relative to DMSO controls)
T4 construct: purchased Reaction Biology (HotSpot contract assay)
T4 sequence (Q15139 1-912): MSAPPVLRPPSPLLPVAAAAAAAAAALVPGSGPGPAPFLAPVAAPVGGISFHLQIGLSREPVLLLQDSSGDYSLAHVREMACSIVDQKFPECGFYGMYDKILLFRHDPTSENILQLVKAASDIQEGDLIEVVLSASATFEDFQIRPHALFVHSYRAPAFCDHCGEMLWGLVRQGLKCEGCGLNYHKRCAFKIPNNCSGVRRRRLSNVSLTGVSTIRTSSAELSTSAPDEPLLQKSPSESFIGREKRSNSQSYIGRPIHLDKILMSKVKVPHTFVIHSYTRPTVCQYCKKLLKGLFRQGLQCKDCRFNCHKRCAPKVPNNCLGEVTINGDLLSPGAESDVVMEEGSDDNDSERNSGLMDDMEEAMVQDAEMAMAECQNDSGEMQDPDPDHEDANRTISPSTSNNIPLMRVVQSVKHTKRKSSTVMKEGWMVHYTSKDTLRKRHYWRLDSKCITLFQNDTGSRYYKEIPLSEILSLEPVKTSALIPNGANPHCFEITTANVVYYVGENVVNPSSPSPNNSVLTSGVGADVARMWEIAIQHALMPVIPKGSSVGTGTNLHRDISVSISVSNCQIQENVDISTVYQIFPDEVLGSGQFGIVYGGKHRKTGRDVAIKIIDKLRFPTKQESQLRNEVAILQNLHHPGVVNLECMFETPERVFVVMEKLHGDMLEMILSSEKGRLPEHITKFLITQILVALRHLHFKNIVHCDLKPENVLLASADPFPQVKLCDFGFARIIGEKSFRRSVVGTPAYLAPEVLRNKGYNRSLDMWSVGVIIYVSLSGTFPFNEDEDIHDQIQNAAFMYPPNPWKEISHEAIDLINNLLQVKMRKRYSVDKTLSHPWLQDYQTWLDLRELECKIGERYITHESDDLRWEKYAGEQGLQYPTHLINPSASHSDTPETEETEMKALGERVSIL

382 unique human kinases [5] = target: T5, 382 unique human kinases (Homo sapiens, UniProt P08581, V1092I); details: c-MET (V1092I), 10 uM; for remaining activity at 10 µM: read-out: % Enzyme Activity (relative to DMSO controls)
T5 construct: purchased Reaction Biology (HotSpot contract assay)

382 unique human kinases [6] = target: T6, 382 unique human kinases (Homo sapiens, UniProt P49841); details: GSK3b, [ATP] 10 µM, compound 10 uM; for remaining activity at 10 µM: read-out: % Enzyme Activity (relative to DMSO controls)
T6 construct: purchased Reaction Biology (HotSpot contract assay)

382 unique human kinases [7] = target: T7, 382 unique human kinases (Homo sapiens, UniProt P51957); details: NEK4, 10 uM; for remaining activity at 10 µM: read-out: % Enzyme Activity (relative to DMSO controls)
T7 construct: purchased Reaction Biology (HotSpot contract assay)

382 unique human kinases [8] = target: T8, 382 unique human kinases (Homo sapiens, UniProt Q9UQM7); details: CAMK2a, 10 uM; for remaining activity at 10 µM: read-out: % Enzyme Activity (relative to DMSO controls)
T8 construct: purchased Reaction Biology (HotSpot contract assay)
T8 sequence (Q9UQM7 whole entry): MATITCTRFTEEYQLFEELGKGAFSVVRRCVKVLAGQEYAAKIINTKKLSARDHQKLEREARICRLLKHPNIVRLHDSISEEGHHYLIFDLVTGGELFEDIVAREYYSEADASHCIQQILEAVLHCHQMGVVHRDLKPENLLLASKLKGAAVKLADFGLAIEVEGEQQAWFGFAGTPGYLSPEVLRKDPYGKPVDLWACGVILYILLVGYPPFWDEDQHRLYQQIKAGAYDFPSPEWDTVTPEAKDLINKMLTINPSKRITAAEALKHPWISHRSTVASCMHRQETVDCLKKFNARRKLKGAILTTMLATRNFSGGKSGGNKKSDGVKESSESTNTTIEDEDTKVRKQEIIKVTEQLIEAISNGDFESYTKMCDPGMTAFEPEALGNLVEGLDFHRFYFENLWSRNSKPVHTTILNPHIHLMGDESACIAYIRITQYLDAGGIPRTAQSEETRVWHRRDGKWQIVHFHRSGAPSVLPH

T7 sequence (P51957 whole entry): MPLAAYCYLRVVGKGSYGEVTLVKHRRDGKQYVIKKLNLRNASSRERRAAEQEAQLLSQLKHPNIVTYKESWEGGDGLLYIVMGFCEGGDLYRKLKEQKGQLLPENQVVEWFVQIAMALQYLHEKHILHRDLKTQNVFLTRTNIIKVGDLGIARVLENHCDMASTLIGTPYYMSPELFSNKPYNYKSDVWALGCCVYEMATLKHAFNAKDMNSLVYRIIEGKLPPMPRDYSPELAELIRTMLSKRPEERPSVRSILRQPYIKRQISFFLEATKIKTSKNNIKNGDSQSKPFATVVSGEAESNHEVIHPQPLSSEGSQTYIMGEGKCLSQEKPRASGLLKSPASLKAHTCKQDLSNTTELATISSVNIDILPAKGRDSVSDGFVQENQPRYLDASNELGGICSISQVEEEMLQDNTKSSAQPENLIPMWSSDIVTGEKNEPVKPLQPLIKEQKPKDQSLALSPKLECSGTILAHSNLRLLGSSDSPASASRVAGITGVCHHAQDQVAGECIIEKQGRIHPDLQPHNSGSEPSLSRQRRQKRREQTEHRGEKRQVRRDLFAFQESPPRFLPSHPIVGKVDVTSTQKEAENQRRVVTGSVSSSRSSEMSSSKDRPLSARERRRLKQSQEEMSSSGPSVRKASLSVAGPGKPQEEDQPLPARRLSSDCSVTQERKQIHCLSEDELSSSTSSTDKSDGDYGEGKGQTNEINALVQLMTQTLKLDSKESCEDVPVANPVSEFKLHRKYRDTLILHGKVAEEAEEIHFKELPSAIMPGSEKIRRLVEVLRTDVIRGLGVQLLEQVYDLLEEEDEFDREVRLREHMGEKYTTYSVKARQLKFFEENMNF
T6 sequence (P49841 whole entry): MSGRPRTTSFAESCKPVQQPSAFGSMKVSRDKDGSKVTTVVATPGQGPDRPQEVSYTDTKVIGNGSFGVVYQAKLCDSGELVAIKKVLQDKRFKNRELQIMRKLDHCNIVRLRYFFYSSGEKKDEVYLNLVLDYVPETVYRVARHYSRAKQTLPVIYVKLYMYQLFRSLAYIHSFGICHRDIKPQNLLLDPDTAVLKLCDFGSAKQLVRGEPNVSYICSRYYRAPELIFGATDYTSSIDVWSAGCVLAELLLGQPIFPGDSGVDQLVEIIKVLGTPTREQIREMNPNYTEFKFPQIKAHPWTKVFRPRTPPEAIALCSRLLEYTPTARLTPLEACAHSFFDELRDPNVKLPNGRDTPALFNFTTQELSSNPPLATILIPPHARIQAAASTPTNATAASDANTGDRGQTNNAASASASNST

Row | Compound | remaining activity at 10 µM (382 unique human kinases [1]) [%] | remaining activity at 10 µM (382 unique human kinases [2]) [%] | remaining activity at 10 µM (382 unique human kinases [3]) [%] | remaining activity at 10 µM (382 unique human kinases [4]) [%] | remaining activity at 10 µM (382 unique human kinases [5]) [%] | remaining activity at 10 µM (382 unique human kinases [6]) [%] | remaining activity at 10 µM (382 unique human kinases [7]) [%] | remaining activity at 10 µM (382 unique human kinases [8]) [%] | % Enzyme Activity (relative to DMSO controls) (382 unique human kinases [1]) [%] | % Enzyme Activity (relative to DMSO controls) (382 unique human kinases [2]) [%] | % Enzyme Activity (relative to DMSO controls) (382 unique human kinases [3]) [%] | % Enzyme Activity (relative to DMSO controls) (382 unique human kinases [4]) [%] | % Enzyme Activity (relative to DMSO controls) (382 unique human kinases [5]) [%] | % Enzyme Activity (relative to DMSO controls) (382 unique human kinases [6]) [%] | % Enzyme Activity (relative to DMSO controls) (382 unique human kinases [7]) [%] | % Enzyme Activity (relative to DMSO controls) (382 unique human kinases [8]) [%]
1 | CC(C)c1cc(-c2n[nH]c(=O)n2-c2ccc3c(ccn3C)c2)c(O)cc1O [Ganetespib (STA9090)] | 84.6 | 60.1 | 65.3 | 84 | – | – | – | – | – | – | – | – | – | – | – | –
2 | CC(C)c1cc(-c2n[nH]c(=O)n2-c2ccc3c(ccn3C)c2)c(O)cc1O [Ganetespib] | – | – | – | – | 98.3 | 29.4 | 95.1 | 91.1 | – | – | – | – | – | – | – | –
3 | CCNC(=O)c1noc(-c2cc(C(C)C)c(O)cc2O)c1-c1ccc(CN2CCOCC2)cc1 [Luminespib (AUY-922)] | 100 | 103 | 100 | 86.5 | – | – | – | – | 99.10 | 102.74 | 99.65 | 86.44 | – | – | – | –
4 | CCNC(=O)c1noc(-c2cc(C(C)C)c(O)cc2O)c1-c1ccc(CN2CCOCC2)cc1 [Luminespib] | – | – | – | – | 97.2 | 110 | 95.4 | 104 | – | – | – | – | 95.91 | 110.01 | 95.18 | 102.76
